Assay results taken from ChEMBL document CHEMBL1782045, “Discovery, synthesis, and investigation of the antitumor activity of novel piperazinylpyrimidine derivatives” (Eur J Med Chem, 2011).

Tests used:
SNB-75 = test: Cytotoxicity against human SNB75 cells after 48 hrs by sulforhodamine B assay; assay type: cell-based; details: snb-75, 48 h
[1] = molecular target: T1, Receptor-interacting serine/threonine-protein kinase 1 (Homo sapiens) (UniProt Q13546); test: Binding affinity to human RIPK1 at 10 uM incubated for 1 hr by kinase binding assay relative to untreated control
T1 sequence (whole entry): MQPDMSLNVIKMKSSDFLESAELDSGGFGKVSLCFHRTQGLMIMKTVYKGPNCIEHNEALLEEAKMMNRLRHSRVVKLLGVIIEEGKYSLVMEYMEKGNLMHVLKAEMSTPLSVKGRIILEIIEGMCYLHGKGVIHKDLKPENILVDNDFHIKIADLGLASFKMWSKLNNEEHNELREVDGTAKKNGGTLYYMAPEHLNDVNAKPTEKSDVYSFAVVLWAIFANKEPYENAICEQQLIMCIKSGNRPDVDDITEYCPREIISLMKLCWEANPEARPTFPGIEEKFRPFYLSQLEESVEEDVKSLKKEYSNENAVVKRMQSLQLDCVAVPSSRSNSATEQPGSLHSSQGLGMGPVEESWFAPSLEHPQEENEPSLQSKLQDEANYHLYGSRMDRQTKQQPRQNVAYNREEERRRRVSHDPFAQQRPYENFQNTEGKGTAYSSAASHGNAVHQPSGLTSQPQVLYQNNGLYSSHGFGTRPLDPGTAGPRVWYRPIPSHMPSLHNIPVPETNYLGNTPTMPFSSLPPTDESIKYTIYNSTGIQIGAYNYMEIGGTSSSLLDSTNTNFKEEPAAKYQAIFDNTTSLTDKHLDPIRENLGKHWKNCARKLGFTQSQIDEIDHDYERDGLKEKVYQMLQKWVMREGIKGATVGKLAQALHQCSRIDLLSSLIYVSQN

MDA-MB-468 = test: Cytotoxicity against human MDA-MB-468 cells after 48 hrs by sulforhodamine B assay; assay type: cell-based; details: mda-mb-468, 48 h
Hs-578T = test: Growth inhibition of human Hs578T cells after 48 hrs by sulforhodamine B assay; assay type: functional
[2] = molecular target: Casein kinase I isoform alpha (Homo sapiens) (UniProt P48729); test: Binding affinity to human CSNK1A1 at 10 uM incubated for 1 hr by kinase binding assay relative to untreated control
Sequence of Casein kinase I isoform alpha (Homo sapiens) (P48729 2-337 limits assumed): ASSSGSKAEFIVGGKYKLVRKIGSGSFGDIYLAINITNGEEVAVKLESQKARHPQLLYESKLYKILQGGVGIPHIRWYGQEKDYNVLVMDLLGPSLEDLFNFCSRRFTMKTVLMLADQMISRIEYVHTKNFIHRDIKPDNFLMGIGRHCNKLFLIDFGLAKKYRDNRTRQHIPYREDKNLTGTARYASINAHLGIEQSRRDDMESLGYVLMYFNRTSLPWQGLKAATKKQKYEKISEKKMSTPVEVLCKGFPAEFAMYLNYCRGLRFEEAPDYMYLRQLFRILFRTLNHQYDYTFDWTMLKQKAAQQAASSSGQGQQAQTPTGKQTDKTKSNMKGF

HT-29 = test: Growth inhibition of human HT-29 cells after 48 hrs by sulforhodamine B assay; assay type: functional; details: HT-29, 48 h
NCI-H322M = test: Growth inhibition of human NCI-H322M cells after 48 hrs by sulforhodamine B assay; assay type: functional
PC-3 = test: Cytotoxicity against human PC3 cells after 48 hrs by sulforhodamine B assay; assay type: cell-based; details: pc-3, 48 h
[3] = molecular target: Casein kinase I isoform delta (Homo sapiens) (UniProt P48730); test: Inhibition of human CSNK1D using gamma-33P-ATP as substrate assessed as enzyme functional activity at 1 uM by scintillation counting relative to untreated control; parameters: scale not given: the % may be the effect or the level left
Sequence of Casein kinase I isoform delta (Homo sapiens) (P48730 whole entry, looked up, canonical isoform): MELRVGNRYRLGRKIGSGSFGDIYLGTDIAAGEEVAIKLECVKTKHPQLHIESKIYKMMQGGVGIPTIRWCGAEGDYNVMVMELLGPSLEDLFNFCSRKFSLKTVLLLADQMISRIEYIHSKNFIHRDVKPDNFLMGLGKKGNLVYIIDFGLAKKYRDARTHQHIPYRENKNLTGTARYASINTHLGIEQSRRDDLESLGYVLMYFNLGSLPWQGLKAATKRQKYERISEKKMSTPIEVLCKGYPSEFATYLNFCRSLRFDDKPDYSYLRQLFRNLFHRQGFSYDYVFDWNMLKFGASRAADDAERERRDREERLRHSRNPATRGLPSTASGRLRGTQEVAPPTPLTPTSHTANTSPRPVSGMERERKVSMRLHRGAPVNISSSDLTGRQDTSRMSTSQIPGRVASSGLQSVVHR

RXF 393 = test: Growth inhibition of human RXF393 cells after 48 hrs by sulforhodamine B assay; assay type: functional; details: RXF 393, 48 h
RPMI-8226 = test: Growth inhibition of human RPMI8226 cells after 48 hrs by sulforhodamine B assay; assay type: functional; details: RPMI-8226, 48 h
T47D [4] = test: Growth inhibition of human T47D cells after 48 hrs by sulforhodamine B assay; assay type: functional
OVCAR-3 = test: Growth inhibition of human OVCAR3 cells after 48 hrs by sulforhodamine B assay; assay type: functional; details: OVCAR-3, 48 h
HCC 2998 = test: Cytotoxicity against human HCC2998 cells after 48 hrs by sulforhodamine B assay; assay type: cell-based; details: hcc 2998, 48 h
UACC-257 = test: Growth inhibition of human UACC257 cells after 48 hrs by sulforhodamine B assay; assay type: functional; details: UACC-257, 48 h
ACHN [5] = test: Cytotoxicity against human ACHN cells after 48 hrs by sulforhodamine B assay; assay type: cell-based
OVCAR-4 = test: Cytotoxicity against human OVCAR4 cells after 48 hrs by sulforhodamine B assay; assay type: cell-based; details: ovcar-4, 48 h
SN12C = test: Cytotoxicity against human SN12C cells after 48 hrs by sulforhodamine B assay; assay type: cell-based
ACHN [6] = test: Growth inhibition of human ACHN cells after 48 hrs by sulforhodamine B assay; assay type: functional
[7] = molecular target: Casein kinase I isoform epsilon (Homo sapiens) (UniProt P49674); test: Binding affinity to human CSNK1E at 10 uM incubated for 1 hr by kinase binding assay relative to untreated control
Sequence of Casein kinase I isoform epsilon (Homo sapiens) (P49674 whole entry, looked up, canonical isoform): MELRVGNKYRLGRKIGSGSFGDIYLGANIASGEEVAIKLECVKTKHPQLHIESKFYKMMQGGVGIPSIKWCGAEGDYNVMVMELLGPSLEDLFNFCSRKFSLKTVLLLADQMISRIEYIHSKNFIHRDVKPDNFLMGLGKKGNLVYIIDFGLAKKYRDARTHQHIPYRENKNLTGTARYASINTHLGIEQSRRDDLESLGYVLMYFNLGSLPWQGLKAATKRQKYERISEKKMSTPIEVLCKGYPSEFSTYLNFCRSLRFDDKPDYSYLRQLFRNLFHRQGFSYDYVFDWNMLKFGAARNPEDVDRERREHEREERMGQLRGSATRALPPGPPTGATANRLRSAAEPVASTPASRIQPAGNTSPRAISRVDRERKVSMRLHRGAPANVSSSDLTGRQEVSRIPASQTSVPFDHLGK

NCI-H23 = test: Cytotoxicity against human NCI-H23 cells after 48 hrs by sulforhodamine B assay; assay type: cell-based; details: nci-h23, 48 h
SF-268 = test: Growth inhibition of human SF268 cells after 48 hrs by sulforhodamine B assay; assay type: functional; details: SF-268, 48 h
T47D [8] = test: Cytotoxicity against human T47D cells after 48 hrs by sulforhodamine B assay; assay type: cell-based
DU-145 = test: Growth inhibition of human DU145 cells after 48 hrs by sulforhodamine B assay; assay type: functional; details: DU-145, 48 h
HCT-15 = test: Cytotoxicity against human HCT15 cells after 48 hrs by sulforhodamine B assay; assay type: cell-based; details: hct-15, 48 h
[9] = test system: Platelet-derived growth factor receptor alpha (Homo sapiens), P16234 [D842V]; test: Inhibition of human PDGFRA D842V using gamma-33P-ATP as substrate assessed as enzyme functional activity at 1 uM by scintillation counting relative to untreated control; parameters: scale not given: the % may be the effect or the level left
Sequence of Platelet-derived growth factor receptor alpha (Homo sapiens), P16234 [D842V] (P16234 whole entry D842V): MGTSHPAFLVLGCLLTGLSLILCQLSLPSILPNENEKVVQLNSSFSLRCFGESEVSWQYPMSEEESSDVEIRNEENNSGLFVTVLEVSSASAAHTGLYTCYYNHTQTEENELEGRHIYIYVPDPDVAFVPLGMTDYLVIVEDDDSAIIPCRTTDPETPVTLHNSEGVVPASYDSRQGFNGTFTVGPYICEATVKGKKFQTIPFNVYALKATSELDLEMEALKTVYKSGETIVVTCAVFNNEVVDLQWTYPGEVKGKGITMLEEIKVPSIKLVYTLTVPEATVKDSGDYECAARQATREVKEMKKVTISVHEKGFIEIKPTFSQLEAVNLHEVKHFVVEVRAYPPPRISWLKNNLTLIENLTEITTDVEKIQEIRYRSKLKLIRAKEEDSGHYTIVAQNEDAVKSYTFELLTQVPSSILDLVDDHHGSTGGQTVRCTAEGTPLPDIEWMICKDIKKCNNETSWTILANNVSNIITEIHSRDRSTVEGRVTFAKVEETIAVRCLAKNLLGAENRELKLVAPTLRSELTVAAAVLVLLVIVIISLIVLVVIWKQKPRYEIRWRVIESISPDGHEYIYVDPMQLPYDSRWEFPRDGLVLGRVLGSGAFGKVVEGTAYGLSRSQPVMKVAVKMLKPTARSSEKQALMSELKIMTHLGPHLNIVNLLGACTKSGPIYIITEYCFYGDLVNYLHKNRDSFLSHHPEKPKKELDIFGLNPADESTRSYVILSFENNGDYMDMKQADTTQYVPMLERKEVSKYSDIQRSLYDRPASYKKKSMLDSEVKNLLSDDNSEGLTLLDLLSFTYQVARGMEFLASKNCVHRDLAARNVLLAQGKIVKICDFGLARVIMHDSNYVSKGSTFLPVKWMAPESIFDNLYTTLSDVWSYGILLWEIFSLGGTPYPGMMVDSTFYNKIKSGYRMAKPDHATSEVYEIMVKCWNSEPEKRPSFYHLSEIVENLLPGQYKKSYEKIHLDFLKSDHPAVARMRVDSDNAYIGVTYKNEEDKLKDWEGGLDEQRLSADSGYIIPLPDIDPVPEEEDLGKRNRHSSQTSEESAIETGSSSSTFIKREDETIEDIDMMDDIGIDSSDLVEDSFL

[10] = molecular target: RAC-beta serine/threonine-protein kinase (Homo sapiens) (UniProt P31751); test: Inhibition of human PKBbeta using gamma-33P-ATP as substrate assessed as enzyme functional activity at 1 uM by scintillation counting relative to untreated control; parameters: scale not given: the % may be the effect or the level left
Sequence of RAC-beta serine/threonine-protein kinase (Homo sapiens) (P31751 whole entry): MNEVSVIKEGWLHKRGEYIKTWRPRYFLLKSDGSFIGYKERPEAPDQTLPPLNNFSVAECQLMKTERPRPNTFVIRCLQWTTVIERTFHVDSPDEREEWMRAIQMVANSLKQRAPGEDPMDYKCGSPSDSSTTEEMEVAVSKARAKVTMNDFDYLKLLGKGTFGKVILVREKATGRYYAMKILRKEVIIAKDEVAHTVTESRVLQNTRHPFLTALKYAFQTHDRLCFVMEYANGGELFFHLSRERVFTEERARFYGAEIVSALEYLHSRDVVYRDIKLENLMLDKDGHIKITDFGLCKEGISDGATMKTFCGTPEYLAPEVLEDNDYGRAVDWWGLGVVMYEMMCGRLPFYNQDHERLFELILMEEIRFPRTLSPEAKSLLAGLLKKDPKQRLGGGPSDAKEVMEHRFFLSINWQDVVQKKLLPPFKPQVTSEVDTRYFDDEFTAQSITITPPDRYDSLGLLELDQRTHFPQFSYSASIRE

SF-295 = test: Cytotoxicity against human SF295 cells after 48 hrs by sulforhodamine B assay; assay type: cell-based; details: sf-295, 48 h
[11] = molecular target: Cyclin-dependent kinase 19 (Homo sapiens) (UniProt Q9BWU1); test: Binding affinity to human CDK11 at 10 uM incubated for 1 hr by kinase binding assay relative to untreated control
Sequence of Cyclin-dependent kinase 19 (Homo sapiens) (Q9BWU1 whole entry): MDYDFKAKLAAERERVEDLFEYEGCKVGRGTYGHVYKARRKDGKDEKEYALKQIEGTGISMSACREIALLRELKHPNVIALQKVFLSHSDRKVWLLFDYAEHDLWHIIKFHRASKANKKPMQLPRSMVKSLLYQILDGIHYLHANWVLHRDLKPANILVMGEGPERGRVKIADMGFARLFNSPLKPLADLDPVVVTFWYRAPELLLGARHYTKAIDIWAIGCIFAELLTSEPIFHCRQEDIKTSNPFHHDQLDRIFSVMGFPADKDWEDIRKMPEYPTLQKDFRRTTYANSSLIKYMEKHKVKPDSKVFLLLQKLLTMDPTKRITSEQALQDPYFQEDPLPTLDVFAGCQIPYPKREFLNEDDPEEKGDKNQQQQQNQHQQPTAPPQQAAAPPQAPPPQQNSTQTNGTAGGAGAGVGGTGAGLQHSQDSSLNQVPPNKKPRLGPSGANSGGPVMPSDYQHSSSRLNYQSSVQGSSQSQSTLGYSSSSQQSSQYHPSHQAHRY

A498 = test: Cytotoxicity against human A498 cells after 48 hrs by sulforhodamine B assay; assay type: cell-based; details: a498, 48 h
[12] = test system: Tyrosine-protein kinase ABL1 (Homo sapiens), P00519 [F317I]; test: Binding affinity to human phosphorylated ABL1 F317I mutant at 10 uM incubated for 1 hr by kinase binding assay relative to untreated control
Sequence of Tyrosine-protein kinase ABL1 (Homo sapiens), P00519 [F317I] (P00519 whole entry F317I): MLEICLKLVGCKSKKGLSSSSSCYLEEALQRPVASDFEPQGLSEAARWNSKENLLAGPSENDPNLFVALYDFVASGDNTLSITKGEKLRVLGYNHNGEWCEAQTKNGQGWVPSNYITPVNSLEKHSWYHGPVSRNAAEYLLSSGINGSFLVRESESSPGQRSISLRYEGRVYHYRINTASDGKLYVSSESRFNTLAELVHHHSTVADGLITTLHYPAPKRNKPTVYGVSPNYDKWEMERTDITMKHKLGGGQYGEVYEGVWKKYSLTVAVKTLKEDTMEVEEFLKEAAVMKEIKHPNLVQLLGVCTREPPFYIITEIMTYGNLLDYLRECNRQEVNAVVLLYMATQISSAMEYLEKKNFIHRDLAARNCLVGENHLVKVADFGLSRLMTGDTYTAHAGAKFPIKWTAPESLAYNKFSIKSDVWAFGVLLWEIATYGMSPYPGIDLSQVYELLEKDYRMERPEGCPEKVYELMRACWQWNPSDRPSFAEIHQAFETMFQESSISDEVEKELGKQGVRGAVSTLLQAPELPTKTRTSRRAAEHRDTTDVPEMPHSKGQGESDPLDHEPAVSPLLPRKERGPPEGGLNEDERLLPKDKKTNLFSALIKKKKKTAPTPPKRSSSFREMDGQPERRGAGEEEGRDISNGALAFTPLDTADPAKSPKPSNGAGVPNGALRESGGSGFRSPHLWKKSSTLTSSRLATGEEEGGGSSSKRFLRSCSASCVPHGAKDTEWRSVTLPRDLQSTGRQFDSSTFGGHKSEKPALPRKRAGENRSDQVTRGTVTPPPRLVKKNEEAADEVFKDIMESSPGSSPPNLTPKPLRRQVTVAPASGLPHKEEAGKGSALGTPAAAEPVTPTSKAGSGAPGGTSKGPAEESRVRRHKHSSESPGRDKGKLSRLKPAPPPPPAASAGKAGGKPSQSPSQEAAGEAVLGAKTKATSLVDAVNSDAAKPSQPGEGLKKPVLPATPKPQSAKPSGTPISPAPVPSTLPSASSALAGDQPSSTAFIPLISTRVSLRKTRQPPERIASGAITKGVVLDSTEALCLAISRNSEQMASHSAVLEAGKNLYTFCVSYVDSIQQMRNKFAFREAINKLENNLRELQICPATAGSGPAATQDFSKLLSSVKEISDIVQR

Malme-3M = test: Growth inhibition of human MALME-3M cells after 48 hrs by sulforhodamine B assay; assay type: functional
OVCAR-8 = test: Growth inhibition of human OVCAR8 cells after 48 hrs by sulforhodamine B assay; assay type: functional; details: OVCAR-8, 48 h
HL-60(TB) = test: Growth inhibition of human HL-60(TB) cells after 48 hrs by sulforhodamine B assay; assay type: functional; details: HL-60, 48 h
UO-31 = test: Growth inhibition of human UO31 cells after 48 hrs by sulforhodamine B assay; assay type: functional; details: UO-31, 48 h
CAKI-1 = test: Growth inhibition of human Caki1 cells after 48 hrs by sulforhodamine B assay; assay type: functional; details: CAKI-1, 48 h

Row | SMILES | LC50 (SNB-75) [µM] | Activity [1] [%] | LC50 (MDA-MB-468) [µM] | Activity [2] [%] | TGI (HT-29) [µM] | TGI (NCI-H322M) [µM] | LC50 (PC-3) [µM] | Activity [3] [%] | TGI (RXF 393) [µM] | TGI (T47D [4]) [µM] | TGI (OVCAR-3) [µM] | LC50 (HCC 2998) [µM] | LC50 (ACHN [5]) [µM] | LC50 (OVCAR-4) [µM] | LC50 (SN12C) [µM] | TGI (ACHN [6]) [µM] | Activity [7] [%] | LC50 (NCI-H23) [µM] | TGI (SF-268) [µM] | LC50 (T47D [8]) [µM] | also measured
1 | O=C(c1cccc(Nc2ncnc3ccccc23)c1)N1CCN(c2ncc(Cc3ccccc3)cn2)CC1 | > 100 | 19 | > 100 | > 50 | 9.33 | 4.79 | > 100 | 74 | 11.5 | 7.59 | 8.13 | 8.91 | > 100 | 7.59 | > 100 | 4.57 | 23 | 6.92 | > 100 | 5.62 | TGI (Hs-578T): 7.41 µM; TGI (RPMI-8226): 0.6 µM; TGI (UACC-257): 2.63 µM; TGI (DU-145): 6.46 µM; LC50 (HCT-15): 9.33 µM; Activity [9]: 96%; Activity [10]: 83%; LC50 (SF-295): > 100 µM; Activity [11]: > 50%; LC50 (A498): > 100 µM; Activity [12]: 20%
2 | CCc1cnc(N2CCN(C(=O)c3ccc(CNc4ncnc5ccccc45)cc3)CC2)nc1 | > 100 | > 50 | > 100 | 36 | 83.2 | > 100 | > 100 | 87 | 41.6 | > 100 | > 100 | > 100 | > 100 | > 100 | > 100 | 82.5 | 29 | > 100 | 100 | > 100 | TGI (Hs-578T): > 100 µM; TGI (Malme-3M): 42.2 µM; TGI (UACC-257): 26.8 µM; TGI (OVCAR-8): > 100 µM; TGI (DU-145): > 100 µM; LC50 (HCT-15): > 100 µM; Activity [9]: 100%; TGI (HL-60(TB)): 38.6 µM; Activity [10]: 82%; TGI (UO-31): 60.5 µM; TGI (CAKI-1): 94.8 µM; LC50 (SF-295): > 100 µM; Activity [11]: 47%; LC50 (A498): > 100 µM; Activity [12]: > 50%
3 | c1ccc(Cc2cnc(N3CCN(c4ncnc5ccccc45)CC3)nc2)cc1 | > 100 | 3.5 | > 100 | > 50 | 35.1 | > 100 | > 100 | 90 | 57.9 | 45.5 | 23.2 | > 100 | > 100 | > 100 | 54.8 | 42.4 | 45 | > 100 | 57.2 | > 100 | TGI (Malme-3M): 33.6 µM; TGI (RPMI-8226): 21.8 µM; TGI (OVCAR-8): 25.6 µM; TGI (DU-145): 30.7 µM; LC50 (HCT-15): > 100 µM; TGI (HL-60(TB)): 41.8 µM; Activity [10]: 89%; TGI (UO-31): 38.4 µM; TGI (CAKI-1): 39.3 µM; Activity [11]: 0%; LC50 (A498): 50.1 µM; Activity [12]: 30%
